“Also recorded” adds a separate entry of the source. Positions of bridges follow the written chain, without caps; N, C: chain ends. No end group written: not given here. Some results are limits rather than exact numbers.

This assay concerns Erk1/2 (T202/Y204) in rat DRG neurons. Briefly: High-content imaging of pERK1/2 in DRG sensory neurons. It is filed as cell-based. Particulars: for pErk1/2 activation: 5 and 30 min, 0.005 to 0.8 µg/µL; for pErk1/2 response by neuron size: xibalbins 0.8 µg/µL. As to the method:
To gauge sensory neuron activity in response to various activating stimuli, including electrical activity, phosphorylation state detection of protein kinase A type II (PKA-II) and MAP kinase Erk1/2 can act as surrogate measurements. Consequently, we tested for increased phosphorylation states in a concentration-dependent manner following exposure to xibalbins. Dissociated DRG neurons were cultured overnight and then exposed to increasing concentrations of the corresponding xibalbins for 5 min and 30 min, respectively. As a positive control, forskolin (Fsk) was also used to induce cAMP synthesis. The activity of PKA-II was monitored by antibodies directed against the phosphorylation site of the inhibitory regulatory subunits RIIα/β, which is exclusively accessible when the catalytic kinase domain is released during kinase activation. For measuring Erk1/2 activity, phospho-sites on Erk1/2 (T202/Y204) were monitored through immunofluorescence, as these sites are phosphorylated during activation. Cellular images were captured using HCI microscopy (Fig. 8A), and the average intensity of each phospho-antibody was quantified (Fig. 8B).
Fig. 8 A Representative images of rat DRG neurons stimulated with PBS (Ctrl) and xib1b (0.8 µg/µL). Cells were stained for UCHL1, pRII, pERK1/2, and Hoechst followed by fixation and staining with standard immunocytochemistry protocols. Green-encircled neurons indicate automatically selected objects. Scale bar: 100 µm. B Mean intensities of UCHL1, pRII, and pERK1/2. The same UCHL1 intensities were observed among tested groups. Forskolin (Fsk), an activator of adenylyl cyclase, was used as a positive control. Fsk at 6 µM concentration induced an increase in pRII and pERK1/2 intensities at 5 and 30 min. Number of analyzed cells per replica: 750 ± 200. Eight independent replicas. C–F Concentration responses of xibalbin toxins (0.005 to 0.8 µg/µL) and mean intensities of pRII and pERK1/2 at 5 min and 30 min. G–H Size versus pRII and pErk1/2 intensities of cells treated with 0.8 µg/µL of xib1 and xib13. Small-sized cells were responding to xibalbins. Statistical significance was assessed using one-way ANOVA with Dunnett’s post hoc test. Data represent mean ± S.E.M (standard error of the mean), n = 4, see “Methods” for details and Additional File 6: Table S2 for individual data values
Male Sprague Dawley rats (250–400 g, 8–16 weeks old) were obtained from Envigo. Rats were kept in 12 h of light/darkness cycles. All experiments were performed in accordance with the German animal welfare law with permission of the District Government for Nature and Environment, NRW (84–02.05.20.13.045, 4.18.003). Rats were scarified by slow inhalation of CO2 which was followed by decapitation. DRGs were extracted from rats, deheated, pooled, and incubated in Neurobasal A/B27 medium (Invitrogen, #12349–015) supplemented with B-27 (Invitrogen #17504), L-glutamine 1:400, L-glutamate 1:270.3, and penicillin/streptomycin 1:100 containing 0.2 U/mL collagenase P (collagenase P, Roche, #1213857) and incubated for 1 h at 37 °C, 5% CO2. DRGs were dissociated with pasteur pipettes and axon stumps were separated by BSA (Sigma-Aldrich, # A2153-100G) gradient centrifugation (14% BSA, 120 g, 8 min). Cells were resuspended in NBA medium, plated in 96-well imaging plate (Greiner BioOne Sensoplate, Black, #655896) precoated with poly-L-ornithine hydrochloride (0.1 mg/ml Sigma, #P2533)/laminin (5 µg/ml Invitrogen, #23017–015), and incubated overnight at 37 °C, 5% CO2.
DRGs were stimulated after overnight incubation. Compounds were prepared as tenfold concentrated stock solutions, diluted in PBS (PAA, cat# H15-002), in v-bottom plates; 50 µL media from culture wells were mixed with the […] stock solutions, and 50 µL added back to the respective wells. Stimulation was performed with automated multichannel pipette and cells were kept in heated block during the stimulation. […]

The mark [1] stands for this setting: 30 min, 0.8 µg/µL (xib13 148 µM, q = 4.32; xib1 154 µM, q = 4.07).

For “KRSCIRRFGRCDHRPNDCCYNSSCRCNLWGSNCRCQRMGLFQKWGK (disulfide 4-19, 11-24, 18-35, 26-33) [xib13]”, the “pErk1/2 activation” value was “increase PKA-II and Erk1/2 sensitization signaling; also recorded: increased PKA-II and pErk1/2 activity”; the “pErk1/2 response by neuron size” value is “increased phosphorylation signals in both small-sized and large-sized sensory neurons”. Moreover, for the setting “5 min, 0.8 µg/µL (148 µM), q = 4.54”, the “increase in pErk1/2 signal” value is “up to 2.5 fold”. Besides, the “increase in pErk1/2 signal” value under setting [1] is recorded as no more than 2.3 fold.

As to “RLFCIRHHKYCGHRPKRCCSGLFCRCNTFGTNCRCQSKGALGKLI (disulfide 4-19, 11-24, 18-35, 26-33) [xib1]”, the “pErk1/2 activation” value was “increase PKA-II and Erk1/2 sensitization signaling; also recorded: increased PKA-II and pErk1/2 activity”; the “pErk1/2 response by neuron size” value was “increased phosphorylation signals in both small-sized and large-sized sensory neurons”. Moreover, under setting [1], the “increase in pErk1/2 signal” value came to 2.17 fold.
